Test results as given in patent publication US4416877A, “Anti-atherosclerotic pharmaceutical compositions containing diphosphonate compounds” (priority 1979, dated 1983).
Read-outs that look alike come from different tables or passages of the source.

Key:
renin [1] = assay: Renin activity in normal monkeys treated for 60 days; type: in vivo, Cynomolgus monkeys
Source text: In order to further elucidate the mechanism of the previously observed hypotensive activity, the renin-angiotensin system was also monitored in these animals at the same time. […] However at this dosage concentration the inhibition appeared to be time dependent.

aorta cholesterol = assay: Aorta cholesterol clearing activity in cholesterol pre-fed rabbits; type: in vivo; settings: 4 months; for Aortic Cholesterol Free/Ester Ratio / Aortic Cholesterol, Arch / Aortic Cholesterol, Thoracic / Aortic Cholesterol, Total / Aortic Phospholipids, Arch / Aortic Phospholipids, Thoracic / Aortic Phospholipids, Total: n = 5
tissue cholesterol = assay: Effects in cholesterol fed rats (serum, liver and aorta lipids); type: in vivo; settings: for change in vivo at 200 mg/kg/day: Rattus norvegicus
Protocol: Effects of diphosphonates of formula (I) in cholesterol fed rats
In order to increase tissue cholesterol, especially liver, rats were fed a high fat-high cholesterol diet for 10 days to 3 months, with the following diet composition: casein 20%, butter 37%, cellulose 9.1%, dextrose 18,9%, cholesterol 4.5%, sodium cholate 1.8%, minerals 7.3%, vitamins 1%, choline 0.4%.
The rats were then fed normal food and were treated for 10 days to 3 months with different compounds (200 mg/kg/day). Serum parameters described above were measured. Liver and aorta lipids were extracted according to J. Folch et al (J. Biochem. 226, 497, 1957). Total lipids were determined by the sulfophosphovanillic reaction (see N. Zolner and K. Kirsch, Z. Ges. exp. Med. 135, 545, 1962) and cholesterol by the Liebermann-Burchard reaction or appropriate enzymatic reaction.
In above Table IV, results are given as % control values. Except for serum calcium, values which differ from control values by less than 15% are considered as non significant (NS).
Serum free fatty acids, triglycerides and phospholipids were measured in normal rats (N) and rats previously fed a cholesterol diet for 10 days (C.F.)
Serum α/β cholesterol, total lipids and cholesterol of liver and aorta were determined in normal rats (N) and rats which had previously been fed on high cholesterol diet (C.F.)

renin [2] = assay: Renin activity in Cynomolgus monkeys fed simultaneously a high cholesterol diet; type: in vivo; settings: for Renin Activity: n = 7
Protocol: (§1) | Dose: 25 mg d.i.d. per day

lipoprotein cholesterol = assay: Lipoprotein cholesterol changes in normal rats treated for 90 days; type: in vivo, male and female rats
Protocol: (§2) Treating male and female rats with 40, 400 and 800 mg/kg of compound 16 per day for 90 days produced a sustained dose response augmentation in serum high density lipoprotein cholesterol (HDL-C or α-cholesterol) as high as 220% above controls at high dose level (Table VI).
*Plasma was pooled from 5 animals of each group and analyzed.

liver cholesterol = assay: Liver cholesterol clearing activity in cholesterol pre-fed rabbits; type: in vivo; settings: 4 months; for Liver Cholesterol / Liver Cholesterol Free/Ester Ratio / Liver Phospholipids / Liver Total Lipids / Liver/Body Weight % Change: n = 5
plasma lipoproteins = assay: Plasma lipoproteins in Cynomolgus monkeys fed simultaneously a high cholesterol diet during 60 days; type: in vivo; settings: for HDL Chol. / α/β Chol. ratio: n = 7
Protocol: as §1

[3] = Weight of fat tissue from rats treated for 90 days; type: in vivo, male and female rats
Protocol: as §2

[4] = test system: alpha/beta cholesterol ratio; assay: Comparison of clofibrate, gemfibrozil and fenofibrate to compound 16: alpha/beta cholesterol ratio in normal Wistar rats; type: in vivo; settings: 100 mg/kg for 10 days, n = 5
Protocol: It should be noted that these diphosphonate compounds are different and novel in comparison to the classical hypolipidemic compounds as illustrated in Table V. The diphosphonate ester used for comparison was the only one to increase the alpha/beta cholesterol ratio in control rats.
Each drug was administered at 100 mg/kg for 10 days

[5] = cholesterol fed rats (C.F), 200 mg/kg/day
[6] = 30 days on high cholesterol diet
[7] = 60 days on high cholesterol diet
[8] = simultaneous cholesterol-compound 16 treatment

For `COP(=O)(OC)OC(c1ccc(Cl)cc1)P(=O)(OC)OC` (stereo not drawn) [Compound 16, Dimethyl α(dimethoxyphosphinyl) p-chlorobenzyl phosphate], the Renin Activity (renin [1]; controls 5.9±0.9) was 0.3±0.1 ng AI /ml/h, the “inhibition of renin” value (renin [1]; male and female monkeys) was “highly significant and almost complete inhibition of renin” and the “Aortic Cholesterol Free/Ester Ratio” value (aorta cholesterol; 100 mg/kg/day) was 0.5 ± 0.1. The “Aortic Cholesterol, Arch” value (aorta cholesterol; 100 mg/kg/day) was 17.9 ± 2.9 mg/g, the “Aortic Cholesterol, Thoracic” value (aorta cholesterol; 100 mg/kg/day) was 10.6 ± 2.8 mg/g and the “Aortic Cholesterol, Total” value (aorta cholesterol; 100 mg/kg/day) was 20.8 ± 6.5 mg/Aorta. For the same molecule, the “Aortic Phospholipids, Arch” value (aorta cholesterol; 100 mg/kg/day) was 4.6 ± 1.4 mg/g, the “Aortic Phospholipids, Thoracic” value (aorta cholesterol; 100 mg/kg/day) was 4.5 ± 1.5 mg/g and the “Aortic Phospholipids, Total” value (aorta cholesterol; 100 mg/kg/day) was 6.5 ± 1.6 mg/Aorta. The “Aortic Cholesterol Free/Ester Ratio” value (aorta cholesterol; 200 mg/kg/day) was 0.4 ± 0.1, the “Aortic Cholesterol, Arch” value (aorta cholesterol; 200 mg/kg/day) was 22.8 ± 3.4 mg/g and the “Aortic Cholesterol, Thoracic” value (aorta cholesterol; 200 mg/kg/day) was 11.0 ± 4.2 mg/g. The “Aortic Cholesterol, Total” value (aorta cholesterol; 200 mg/kg/day) was 18.3 ± 6.7 mg/Aorta, the “Aortic Phospholipids, Arch” value (aorta cholesterol; 200 mg/kg/day) was 5.9 ± 1.3 mg/g and the “Aortic Phospholipids, Thoracic” value (aorta cholesterol; 200 mg/kg/day) was 4.9 ± 1.9 mg/g. For the same molecule, the “Aortic Phospholipids, Total” value (aorta cholesterol; 200 mg/kg/day) was 7.9 ± 1.8 mg/Aorta, the “pre-established cholesterol deposits, aorta” value (aorta cholesterol; cholesterol pre-fed rabbits) was “effectively decreased the pre-established cholesterol deposits” and the change in vivo at 200 mg/kg/day (tissue cholesterol; cholesterol fed rats (C.F), 200 mg/kg/day, read-out: Liver Chol. (% control values)) was -57%. For the same molecule, the change in vivo at 200 mg/kg/day (tissue cholesterol; cholesterol fed rats (C.F), 200 mg/kg/day, read-out: Liver Total Lipids (% control values)) was -32%, the “liver total lipids and/or liver cholesterol” value (tissue cholesterol; cholesterol fed rats) was “decreased significantly” and the “Aorta Chol. (% control values)” value (tissue cholesterol; [5]) was -30%. The “Aorta Total Lipids (% control values)” value (tissue cholesterol; [5]) was -37%, the “Serum Chol. α/β (% control values)” value (tissue cholesterol; [5]) was “+169%” and the “Renin Activity” value (renin [2]; [6]) was 0.8 ± 0.5 ng AI /ml/h. The “Renin Activity” value (renin [2]; [7]) was 1.1 ± 0.2 ng AI /ml/h, the “renin inhibition” value (renin [2]; [8]) was “essentially completely inhibited” and the “renin inhibition, fold” value (renin [2]; [8]) was 20 fold. It also gave a α-chol (lipoprotein cholesterol; 40 mg/kg, female) of 54 mg/dL, a α/β ratio (lipoprotein cholesterol; 40 mg/kg, female) of 6.0 and a β-chol (lipoprotein cholesterol; 40 mg/kg, female) of 9.0 mg/dL. For the same molecule, the α-chol (lipoprotein cholesterol; 40 mg/kg, male) was 63 mg/dL, the α/β ratio (lipoprotein cholesterol; 40 mg/kg, male) was 7.6 and the β-chol (lipoprotein cholesterol; 40 mg/kg, male) was 8.3 mg/dL. It also gave a α-chol (lipoprotein cholesterol; 400 mg/kg, female) of 68 mg/dL, a α/β ratio (lipoprotein cholesterol; 400 mg/kg, female) of 11.5 and a β-chol (lipoprotein cholesterol; 400 mg/kg, female) of 5.9 mg/dL. For the same molecule, the α-chol (lipoprotein cholesterol; 400 mg/kg, male) was 78 mg/dL, the α/β ratio (lipoprotein cholesterol; 400 mg/kg, male) was 11.5 and the β-chol (lipoprotein cholesterol; 400 mg/kg, male) was 7.6 mg/dL. It also gave a α-chol (lipoprotein cholesterol; 800 mg/kg, female) of 117 mg/dL, a α/β ratio (lipoprotein cholesterol; 800 mg/kg, female) of 11.3 and a β-chol (lipoprotein cholesterol; 800 mg/kg, female) of 10.3 mg/dL. It also gave a α-chol (lipoprotein cholesterol; 800 mg/kg, male) of 128 mg/dL, a α/β ratio (lipoprotein cholesterol; 800 mg/kg, male) of 10.7 and a β-chol (lipoprotein cholesterol; 800 mg/kg, male) of 11.9 mg/dL. For the same molecule, the “augmentation in serum HDL-C (α-cholesterol) above controls” value (lipoprotein cholesterol; high dose level (800 mg/kg)) was at most 220%, the “Liver Cholesterol” value (liver cholesterol; 100 mg/kg/day) was 3.1 ± 1.2 mg/g and the “Liver Cholesterol Free/Ester Ratio” value (liver cholesterol; 100 mg/kg/day) was 2.23 ± 0.27. The “Liver Phospholipids” value (liver cholesterol; 100 mg/kg/day) was 20.7 ± 2.7 mg/g, the “Liver Total Lipids” value (liver cholesterol; 100 mg/kg/day) was 20.5 ± 3.4 mg/g and the “Liver/Body Weight % Change” value (liver cholesterol; 100 mg/kg/day) was “+8%”. For the same molecule, the “Liver Cholesterol” value (liver cholesterol; 200 mg/kg/day) was 3.9 ± 1.4 mg/g, the “Liver Cholesterol Free/Ester Ratio” value (liver cholesterol; 200 mg/kg/day) was 2.24 ± 0.46 and the “Liver Phospholipids” value (liver cholesterol; 200 mg/kg/day) was 26.3 ± 3.1 mg/g. For the same molecule, the “Liver Total Lipids” value (liver cholesterol; 200 mg/kg/day) was 25.9 ± 2.9 mg/g, the “Liver/Body Weight % Change” value (liver cholesterol; 200 mg/kg/day) was “+12%” and the “pre-established cholesterol deposits, liver” value (liver cholesterol; cholesterol pre-fed rabbits) was “effectively decreased the pre-established cholesterol deposits”. For the same molecule, the “HDL Chol.” value (plasma lipoproteins; [6]) was 49 ± 4 mg/100 ml, the “α/β Chol. ratio” value (plasma lipoproteins; [6]) was 0.22 ± 0.05 and the “HDL Chol.” value (plasma lipoproteins; [7]) was 39 ± 6 mg/100 ml. For the same molecule, the “α/β Chol. ratio” value (plasma lipoproteins; [7]) was 0.22 ± 0.05, the “HDL-C values and α/β ratios” value (plasma lipoproteins; simultaneous cholesterol feeding, 60 days) was “increase HDL-C values and the α/β ratios” and the “decreasing the weight of fat tissue” value ([3]; 40, 400 and 800 mg/kg) was “impressive dose response effect in decreasing the weight of fat tissue”. For the same molecule, the “Weight of fat tissue” value ([3]; females, 40 mg/kg, n = 10) was 1.33 ± 0.66 g, the “Weight of fat tissue” value ([3]; females, 400 mg/kg, n = 5) was 0.39 ± 0.24 g and the “Weight of fat tissue” value ([3]; females, 800 mg/kg, n = 5) was 0.48 ± 0.14 g. The “Weight of fat tissue” value ([3]; males, 40 mg/kg, n = 8) was 2.49 ± 0.94 g, the “Weight of fat tissue” value ([3]; males, 400 mg/kg, n = 5) was 1.95 ± 0.52 g and the “Weight of fat tissue” value ([3]; males, 800 mg/kg, n = 5) was 0.97 ± 0.30 g. For the same molecule, the “alpha/beta Cholesterol Ratio” value [4] was 9.69 ± 0.76.
